Laboratory results: US5753691A, “Agents for inhibiting the production of IL-1β and the release of TNFα” (Nisshin Flour Milling Co., Ltd., priority 1994, dated 1998)

How the values were obtained:
[1] = tested on: IL-1β; test: Inhibition of IL-1β production in THP-1 cells stimulated with PMA and polyinosic acid (enzyme immunoassay); type: cell-based; conditions: Homo sapiens, 3×10^6 cells/ml, compound 1 h, then PMA 2 μg/ml and polyinosic acid 200 μg/ml, 24 h, supernatant
Protocol: The pyrrolidinone derivatives of the present invention were evaluated for the activity to inhibit the production of IL-1β, in accordance with the following method.
(§1) Then, 12-o-tetradecanoylphorbol-13-acetate (PMA) and polyinosic acid were added to each well so as to provide final concentrations of 2 μg/ml and 200 μg/ml, respectively. […] After incubation, a supernatant was recovered from each well by means of Pipetteman available from Gilson Co., Ltd. Then, an amount of the IL-1β in the supernatant was assayed by means of the enzyme immunoassay kit available from Cayman Chemical Co., Ltd.
(§2) The results are summarized below, expressed in terms of IC50 values in μM unit, wherein the amount of IL-1β produced at the time of no addition of the pyrrolidinone derivative is defined as 100 and the concentration of each test compound of the present invention to inhibit 50% the IL-1β production is defined as IC50.

[2] = tested on: TNFα; test: Inhibition of TNFα release from THP-1 cells stimulated with PMA and polyinosic acid (human TNFα ELISA); type: cell-based; conditions: 3×10^6 cells/ml, compound 1 h, then PMA 2 μg/ml and polyinosic acid 200 μg/ml, 24 h, supernatant
Protocol: The pyrrolidinone derivatives of the present invention were evaluated for the activity to inhibit the release of TNFα, in accordance with the following method.
as §1, with “PMA” for “12-o-tetradecanoylphorbol-13-acetate (PMA)”, “An” for “Then, an”, “TNFα” for “the IL-1β”, “human TNFα ELISA” for “enzyme immunoassay”, “Genzyme” for “Cayman Chemical”
as §2, with “TNFα released” for “IL-1β produced”, “derivatives” for “derivative”, “TNFα release” for “IL-1β production”

[3] = tested on: THP-1 cells
Protocol: The suspension of THP-1 cell was subcultured at 37° C. under the atmosphere of 95% oxygen and 5% carbon dioxide. A portion of the subcultured suspension was centrifuged at 1200 rpm at room temperature for 3 minutes to recover the subcultured THP-1 cells.
The resuspension of the cell was dispensed in 1 ml portions to wells of a 24-well plate for cell culture. […] The plate was incubated at 37° C. under the atmosphere of 95% oxygen and 5% carbon dioxide for 24 hours. After incubation, 100 μl of Alamar Blue (available from Biosource Co., Ltd.) was added to each well and then incubation was further continued at 37° C. under the atmosphere of 95% oxygen and 5% carbon dioxide for 3 hours.
After incubation, a supernatant was recovered by means of the Pipetteman available from Gilson Co., Ltd. and determined for a difference in absorbances at 570 nm and 600 nm. The difference in absorbances at 570 nm and 600 nm for the test solution containing no pyrrolidinone derivative was used as a standard.

IC50 [1] [µM]	IC50 [2] [µM]	SMILES	cytotoxicity [3]
26	2.8	O=C(C=Cc1ccccc1)N1CCCC1=O [Compound 1]	–
86	–	COc1ccccc1C=CC(=O)N1CCCC1=O [Compound 2]	–
73	–	COc1cccc(C=CC(=O)N2CCCC2=O)c1 [Compound 3]	–
73	–	COc1ccc(C=CC(=O)N2CCCC2=O)cc1 [Compound 4]	–
69	16	COc1ccc(C=CC(=O)N2CCCC2=O)cc1OC [Compound 5]	–
13	3	O=C(C=Cc1ccc([N+](=O)[O-])cc1)N1CCCC1=O [Compound 9]	–
–	–	O=C(C=Cc1ccc([N+](=O)[O-])cc1[N+](=O)[O-])N1CCCC1=O [Compound 10]	no cytotoxicity was found
1.4	4.6	O=C(C=Cc1ccccn1)N1CCCC1=O [Compound 12]	–
48	30	O=C(C=Cc1cccnc1)N1CCCC1=O [Compound 13]	–
42	–	O=C(C=Cc1ccncc1)N1CCCC1=O [Compound 14]	–
